Reference: PubChem BioAssay AID330 (DTP/NCI, 2004)
Where “and” joins values, the source holds several entries; their conditions need not be identical. Equal values may be shown once. Toxic doses and inconclusive results are not listed. The calls were made as follows: active = survival T/C of 150% or more; inactive = T/C below 125% in these data.

Test system: P388 leukemia ip, CD2F1 mice, survival T/C
Test: NCI In Vivo Anticancer Drug Screen. Data for tumor model P388 Leukemia (intraperitoneal) in CD2F1 (CDF1) mice
Details: endpoint: median survival time, higher = longer survival
Summary of the method: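 Mice carrying the transplanted tumor received test compound or vehicle. Survival was recorded in each group, and the value is the treated-group measurement divided by that of the vehicle-treated control group.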

[1] = dose: 25.0 mg/kg/injection, schedule: Q01DX009 (ip), vehicle: Klucel (hydroxypropylcellulose) (HPC)
[2] = dose: 50.0 mg/kg/injection, schedule: Q01DX009 (ip), vehicle: Klucel (hydroxypropylcellulose) (HPC)
[3] = dose: 100.0 mg/kg/injection, schedule: Q01DX009 (ip), vehicle: Klucel (hydroxypropylcellulose) (HPC)
[4] = dose: 200.0 mg/kg/injection, schedule: Q01DX009 (ip), vehicle: Klucel (hydroxypropylcellulose) (HPC)
[5] = dose: 25.0 mg/kg/injection, schedule: Q01DX009 (ip), vehicle: saline with Tween-80
[6] = dose: 50.0 mg/kg/injection, schedule: Q01DX009 (ip), vehicle: saline with Tween-80
[7] = dose: 100.0 mg/kg/injection, schedule: Q01DX009 (ip), vehicle: saline with Tween-80
[8] = dose: 200.0 mg/kg/injection, schedule: Q01DX009 (ip), vehicle: saline with Tween-80

Measured: T/C

Cc1cc(C)c2ccc(C)c(N)c2n1
inactive: dose: 50.0 mg/kg/injection, schedule: Q01DX005 (ip), vehicle: saline with Tween-80 99 % of control | dose: 100.0 mg/kg/injection, schedule: Q01DX005 (ip), vehicle: saline with Tween-80 92 % of control | dose: 200.0 mg/kg/injection, schedule: Q01DX005 (ip), vehicle: saline with Tween-80 99 % of control

CNC(=O)Nc1ccc[nH]c1=O
inactive: [1] 103 % of control and 95 % of control | dose: 25.0 mg/kg/injection, schedule: Q01DX009 (ip), vehicle: saline 101 % of control | [2] 90 % of control and 91 % of control | dose: 50.0 mg/kg/injection, schedule: Q01DX009 (ip), vehicle: saline 99 % of control and 97 % of control | [3] 105 % of control and 96 % of control | dose: 100.0 mg/kg/injection, schedule: Q01DX009 (ip), vehicle: saline 100 % of control and 108 % of control | [4] 101 % of control and 87 % of control | dose: 200.0 mg/kg/injection, schedule: Q01DX009 (ip), vehicle: saline 99 % of control | dose: 400.0 mg/kg/injection, schedule: Q01DX009 (ip), vehicle: Klucel (hydroxypropylcellulose) (HPC) 109 % of control and 96 % of control | dose: 400.0 mg/kg/injection, schedule: Q01DX009 (ip), vehicle: saline 102 % of control and 109 % of control

COc1ccc(/C=N/N2CN(C(C)C(=O)O)B(NCCC(C)C)N=C2N)cc1OC (stereo not given)
inactive: dose: 60.0 mg/kg/injection, schedule: Q01DX005 (ip), vehicle: saline 104 % of control | dose: 120.0 mg/kg/injection, schedule: Q01DX005 (ip), vehicle: saline 105 % of control

Cc1c2cc(Cl)ccc2c(CSC(=N)N)c2ccc3ccccc3c12
inactive: dose: 50.0 mg/kg/injection, schedule: Q04DX002 (ip), vehicle: Klucel (hydroxypropylcellulose) (HPC) 100 % of control | dose: 100.0 mg/kg/injection, schedule: Q04DX002 (ip), vehicle: Klucel (hydroxypropylcellulose) (HPC) 102 % of control | dose: 200.0 mg/kg/injection, schedule: Q04DX002 (ip), vehicle: Klucel (hydroxypropylcellulose) (HPC) 107 % of control

CSc1nc(NC2OC(CO)C(O)C(O)C2O)c(Cl)c(=O)n1C (stereo not given)
inactive: dose: 15.0 mg/kg/injection, schedule: Q01DX005 (ip), vehicle: saline with Tween-80 94 % of control | dose: 30.0 mg/kg/injection, schedule: Q01DX005 (ip), vehicle: saline with Tween-80 95 % of control | dose: 60.0 mg/kg/injection, schedule: Q01DX005 (ip), vehicle: saline with Tween-80 91 % of control and 97 % of control | dose: 120.0 mg/kg/injection, schedule: Q01DX005 (ip), vehicle: saline with Tween-80 100 % of control

CC1=CC(=Nc2ccc(N(CCCl)CCCl)cc2)C(C)=C(C)C1=O
inactive: dose: 100.0 mg/kg/injection, schedule: Q01DX001 (ip), vehicle: Klucel (hydroxypropylcellulose) (HPC) 116 % of control and 123 % of control

CCOC(=O)CCC(NC(=O)c1ccc(I)cc1)C(=O)OCC (stereo not given)
inactive: [2] 100 % of control | [3] 93 % of control | [4] 102 % of control

CCOCCSc1ccccc1
inactive: [5] 99 % of control | [6] 103 % of control | [7] 112 % of control | [8] 105 % of control

O=c1cc(O)n2ncnc2[nH]1
inactive: [5] 101 % of control | [6] 104 % of control | [7] 104 % of control | [8] 99 % of control

O=c1oc2ccccc2c2c1SC(c1ccncc1)C2 (stereo not given)
inactive: dose: 60.0 mg/kg/injection, schedule: Q01DX005 (ip), vehicle: Klucel (hydroxypropylcellulose) (HPC) 91 % of control | dose: 120.0 mg/kg/injection, schedule: Q01DX005 (ip), vehicle: Klucel (hydroxypropylcellulose) (HPC) 88 % of control | dose: 240.0 mg/kg/injection, schedule: Q01DX005 (ip), vehicle: Klucel (hydroxypropylcellulose) (HPC) 91 % of control

C[N+](C)(C)Cc1ccccc1
inactive: dose: 3.13 mg/kg/injection, schedule: Q01DX009 (ip), vehicle: saline with Tween-80 100 % of control | dose: 3.13 mg/kg/injection, schedule: Q01DX009 (ip), vehicle: saline 99 % of control | dose: 6.25 mg/kg/injection, schedule: Q01DX009 (ip), vehicle: Klucel (hydroxypropylcellulose) (HPC) 95 % of control | dose: 6.25 mg/kg/injection, schedule: Q01DX009 (ip), vehicle: saline with Tween-80 100 % of control | dose: 6.25 mg/kg/injection, schedule: Q01DX009 (ip), vehicle: saline 94 % of control | dose: 12.5 mg/kg/injection, schedule: Q01DX009 (ip), vehicle: Klucel (hydroxypropylcellulose) (HPC) 93 % of control | dose: 12.5 mg/kg/injection, schedule: Q01DX009 (ip), vehicle: saline with Tween-80 100 % of control | dose: 12.5 mg/kg/injection, schedule: Q01DX009 (ip), vehicle: saline 96 % of control | [1] 99 % of control

CCCCN(CCCC)C(=N)OC
inactive: dose: 12.5 mg/kg/injection, schedule: Q01DX005 (ip), vehicle: suspension in saline 100 % of control | dose: 25.0 mg/kg/injection, schedule: Q01DX005 (ip), vehicle: suspension in saline 108 % of control | dose: 50.0 mg/kg/injection, schedule: Q01DX005 (ip), vehicle: saline 99 % of control | dose: 50.0 mg/kg/injection, schedule: Q01DX005 (ip), vehicle: suspension in saline 117 % of control
